Here are results for 14 compounds from patent US11311542B2, “Inhibitors of cyclin dependent kinase 7 (CDK7)” (Syros Pharmaceuticals, Inc., priority 2018, dated 2022).

Assay [1] addresses CDK7/Cyclin H/MAT1 complex (Homo sapiens, UniProt P50613). The experiment in a line: CDK7 kinase inhibition assay (Caliper/LabChip EZ Reader).
A further assay concerns MB453 cells. Kind of assay: Inhibition of cell proliferation (CyQUANT Direct), MB453. To be noted: MB453, 72-hour. Type of assay: cell-based, human.
For a further assay, the target named is CDK2/Cyclin E1 complex (Homo sapiens, UniProt P24941). The experiment in a line: CDK2 kinase inhibition assay (Caliper/LabChip EZ Reader).
For the next assay, the system named is HCC70 cells. The experiment in a line: Inhibition of cell proliferation (CyQUANT Direct), HCC70. Type of assay: cell-based, human. The settings on record: HCC70, 72-hour.
In a further assay the target is CDK9/Cyclin T1 complex (Homo sapiens, UniProt P50750). The experiment in a line: CDK9 kinase inhibition assay (Caliper/LabChip EZ Reader).
In assay [2] the target is CDK12 (aa686-1082)/Cyclin K complex (Homo sapiens, UniProt Q9NYV4). The experiment in a line: CDK12 kinase inhibition assay (Caliper/LabChip EZ Reader).
Another assay deals with COV504 cells. The experiment in a line: Inhibition of cell proliferation (CyQUANT Direct), COV504. It is filed as cell-based, human. To be noted: COV504, 72-hour.
For the next assay, the system named is COV318 cells. Kind of assay: Inhibition of cell proliferation (CyQUANT Direct), COV318. It is filed as cell-based, human. To be noted: COV318, 72-hour.
Where [3] appears, read: read-out: CDK7 IC50, CDK7/Cyclin H/MAT1 6 nM, ATP 2 mM, 35 min at 27° C.
Where [4] appears, read: read-out: CDK2 IC50, CDK2/Cyclin E1 0.5 nM, ATP 2 mM, 35 min at 27° C.
Where [5] appears, read: read-out: CDK9 IC50, CDK9/Cyclin T1 8 nM, ATP 2 mM, 15 min at 27° C.
Setting [6] is: read-out: CDK12 IC50, CDK12 (aa686-1082)/Cyclin K 50 nM, ATP 2 mM, 3 hr at 27° C.

Like-named read-outs stand apart in the source and are kept apart here.

Sequence of CDK12 (aa686-1082)/Cyclin K complex (Q9NYV4 686-1082): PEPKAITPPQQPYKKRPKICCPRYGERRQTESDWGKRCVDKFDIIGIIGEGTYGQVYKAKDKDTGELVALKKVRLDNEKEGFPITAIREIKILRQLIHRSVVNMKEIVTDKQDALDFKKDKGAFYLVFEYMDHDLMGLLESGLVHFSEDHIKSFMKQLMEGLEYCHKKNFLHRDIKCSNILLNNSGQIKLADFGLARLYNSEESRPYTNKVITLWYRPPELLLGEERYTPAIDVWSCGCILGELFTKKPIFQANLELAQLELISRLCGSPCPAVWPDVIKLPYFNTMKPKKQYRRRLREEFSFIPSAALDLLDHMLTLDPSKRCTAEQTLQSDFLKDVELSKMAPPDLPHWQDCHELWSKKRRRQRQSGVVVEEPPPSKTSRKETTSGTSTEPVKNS
Sequence of CDK12 (aa686-1082)/Cyclin K complex (O75909 whole entry partner, the tested form may be a part): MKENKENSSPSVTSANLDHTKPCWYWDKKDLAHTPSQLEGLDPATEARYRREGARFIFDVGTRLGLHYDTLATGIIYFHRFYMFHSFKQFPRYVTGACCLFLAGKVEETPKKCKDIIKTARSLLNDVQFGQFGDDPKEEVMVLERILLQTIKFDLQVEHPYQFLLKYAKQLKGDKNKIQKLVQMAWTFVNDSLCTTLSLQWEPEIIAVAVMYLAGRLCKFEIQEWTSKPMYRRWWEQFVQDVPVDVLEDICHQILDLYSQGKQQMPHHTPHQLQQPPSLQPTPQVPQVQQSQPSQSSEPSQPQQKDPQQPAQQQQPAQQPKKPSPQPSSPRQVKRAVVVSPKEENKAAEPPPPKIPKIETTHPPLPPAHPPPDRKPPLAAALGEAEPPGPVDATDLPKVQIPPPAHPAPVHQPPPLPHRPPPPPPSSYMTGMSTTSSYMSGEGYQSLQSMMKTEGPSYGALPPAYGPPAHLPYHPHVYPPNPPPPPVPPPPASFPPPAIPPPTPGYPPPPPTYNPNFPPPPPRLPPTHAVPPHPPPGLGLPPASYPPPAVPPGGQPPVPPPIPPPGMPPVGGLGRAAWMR
Sequence of CDK9/Cyclin T1 complex (P50750 whole entry, the tested form may be a part): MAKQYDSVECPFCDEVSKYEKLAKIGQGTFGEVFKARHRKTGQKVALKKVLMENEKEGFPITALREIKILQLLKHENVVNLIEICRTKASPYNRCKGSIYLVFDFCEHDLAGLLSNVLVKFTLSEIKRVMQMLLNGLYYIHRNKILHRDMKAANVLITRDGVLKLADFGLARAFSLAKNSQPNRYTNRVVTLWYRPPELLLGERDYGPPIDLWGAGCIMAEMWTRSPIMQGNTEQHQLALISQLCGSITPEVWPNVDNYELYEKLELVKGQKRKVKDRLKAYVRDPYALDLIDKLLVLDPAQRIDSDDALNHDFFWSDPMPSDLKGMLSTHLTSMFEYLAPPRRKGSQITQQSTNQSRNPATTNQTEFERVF
Sequence of CDK9/Cyclin T1 complex (O60563 whole entry partner, the tested form may be a part): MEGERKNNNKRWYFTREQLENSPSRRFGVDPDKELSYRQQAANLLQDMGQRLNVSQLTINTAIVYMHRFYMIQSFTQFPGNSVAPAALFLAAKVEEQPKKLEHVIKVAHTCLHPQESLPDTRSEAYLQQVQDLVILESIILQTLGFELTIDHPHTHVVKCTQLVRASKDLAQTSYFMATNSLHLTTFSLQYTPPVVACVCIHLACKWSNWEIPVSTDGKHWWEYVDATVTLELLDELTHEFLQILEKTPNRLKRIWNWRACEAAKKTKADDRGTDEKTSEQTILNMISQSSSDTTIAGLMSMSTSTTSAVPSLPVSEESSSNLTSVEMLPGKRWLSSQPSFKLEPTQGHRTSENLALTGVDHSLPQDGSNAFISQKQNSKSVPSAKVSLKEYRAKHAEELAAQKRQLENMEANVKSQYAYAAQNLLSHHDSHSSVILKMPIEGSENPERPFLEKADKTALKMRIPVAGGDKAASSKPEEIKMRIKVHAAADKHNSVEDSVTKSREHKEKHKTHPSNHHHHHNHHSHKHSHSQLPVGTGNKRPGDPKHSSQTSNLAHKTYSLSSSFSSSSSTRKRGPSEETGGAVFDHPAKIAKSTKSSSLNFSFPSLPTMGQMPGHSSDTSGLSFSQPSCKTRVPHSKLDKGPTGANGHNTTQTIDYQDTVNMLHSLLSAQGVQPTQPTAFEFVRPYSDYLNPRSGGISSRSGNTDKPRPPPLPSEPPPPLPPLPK
Sequence of CDK7/Cyclin H/MAT1 complex (P50613 whole entry): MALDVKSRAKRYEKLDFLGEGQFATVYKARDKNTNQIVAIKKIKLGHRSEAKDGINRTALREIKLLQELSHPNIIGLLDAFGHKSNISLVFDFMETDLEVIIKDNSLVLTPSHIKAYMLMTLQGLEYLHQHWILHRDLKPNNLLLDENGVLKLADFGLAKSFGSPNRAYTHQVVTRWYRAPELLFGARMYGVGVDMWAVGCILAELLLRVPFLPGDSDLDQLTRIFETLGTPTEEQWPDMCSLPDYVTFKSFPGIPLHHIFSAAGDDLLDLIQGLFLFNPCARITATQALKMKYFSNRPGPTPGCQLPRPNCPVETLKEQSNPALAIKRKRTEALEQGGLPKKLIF
Sequence of CDK7/Cyclin H/MAT1 complex (P51946 whole entry partner): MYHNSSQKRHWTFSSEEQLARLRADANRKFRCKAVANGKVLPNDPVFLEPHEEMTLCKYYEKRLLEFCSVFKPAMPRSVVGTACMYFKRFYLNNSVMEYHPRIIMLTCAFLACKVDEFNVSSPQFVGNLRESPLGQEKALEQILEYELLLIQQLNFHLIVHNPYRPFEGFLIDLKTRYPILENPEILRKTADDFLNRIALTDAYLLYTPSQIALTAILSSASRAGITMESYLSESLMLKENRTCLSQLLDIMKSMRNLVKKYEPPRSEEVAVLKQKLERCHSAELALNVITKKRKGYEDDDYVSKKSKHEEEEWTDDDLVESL
Sequence of CDK7/Cyclin H/MAT1 complex (P51948 whole entry partner): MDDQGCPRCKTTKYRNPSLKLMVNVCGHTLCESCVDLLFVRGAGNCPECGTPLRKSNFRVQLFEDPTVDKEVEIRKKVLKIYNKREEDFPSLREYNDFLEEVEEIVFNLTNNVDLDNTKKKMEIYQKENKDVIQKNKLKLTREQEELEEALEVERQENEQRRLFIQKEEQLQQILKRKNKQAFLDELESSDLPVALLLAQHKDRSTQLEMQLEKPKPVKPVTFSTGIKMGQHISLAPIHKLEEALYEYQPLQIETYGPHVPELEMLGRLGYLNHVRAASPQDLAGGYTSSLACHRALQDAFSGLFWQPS
Experimental for CDK9/Cyclin T1 complex: Compounds described herein were assayed for inhibition of CDK7, CDK9, CDK12, and CDK2 activity at Biortus Biosciences (Jiangyin, Jiangsu Province, P.R. of China) using kinase assays for each CDK developed with a Caliper/LabChip EZ Reader (Perkin Elmer, Waltham, Mass.).
Furthermore, the CDK9 inhibition assay used CDK9/Cyclin T1 complex (8 nM) and “5-FAM-CDK9tide” peptide substrate (2 μM, synthesized fluorophore-labeled peptide with the following sequence: 5-FAM-GSRTPMY-NH2 (SEQ ID NO:2) where 5-FAM is defined above and NH2 signifies a C-terminal amide) with 10 mM MgCl2 in the buffer composition listed above. The CDK12 inhibition assay used CDK12 (aa686-1082)/Cyclin K complex (50 nM) and “5-FAM-CDK9tide” (2 μM) as defined above, with 2 mM MgCl2 in the buffer composition above. Additionally, the CDK2 inhibition assay used CDK2/Cyclin E1 complex (0.5 nM) and “5-FAM-CDK7tide” (2 μM; defined above) with 2 mM MgCl2 in the buffer composition above.
The incubation period at 27° C. for each CDK inhibition assay was chosen such that the fraction of phosphorylated peptide product produced in each assay, relative to the total peptide concentration, was approximately 20% (±5%) for the uninhibited kinase (35 min. for CDK7, 35 min. for CDK2, 3 hr. for CDK12, 15 min. for CDK9).

Regarding `Cc1nocc1-c1ccc2c(-c3nc(N[C@H]4CC[C@H](C)NC4)ncc3C(F)(F)F)c[nH]c2n1` [Compound 156, 4-[6-(3-methylisoxazol-4-yl)-1H-pyrrolo[2,3-b]pyridin-3-yl]-N-[(3S,6S)-6-methyl-3-piperidyl]-5-(trifluoromethyl)pyrimidin-2-amine], the IC50 in assay [1] was under 0.03 µM; in the assay with MB453 cells (Homo sapiens), 0.1 to 0.5 µM; at CDK2/Cyclin E1 complex, over 0.5 µM; in the assay with HCC70 cells (Homo sapiens), 0.5 to 1 µM; against CDK9/Cyclin T1 complex it was over 0.5 µM; in assay [2], over 0.5 µM. The IC50 in the assay on COV504 cells (Homo sapiens) is 0.1 to 0.5 µM; in the assay on COV318 cells (Homo sapiens) it was over 1 µM.
On to `Cc1nocc1-c1ccc2c(-c3nc(N[C@@H]4CC[C@@H](C)NC4)ncc3C(F)(F)F)c[nH]c2n1` [Compound 157, 4-[6-(3-methylisoxazol-4-yl)-1H-pyrrolo[2,3-b]pyridin-3-yl]-N-[(3R,6R)-6-methyl-3-piperidyl]-5-(trifluoromethyl)pyrimidin-2-amine], for which the IC50 was under 0.03 µM in assay [1]; under 0.1 µM in the assay on MB453 cells (Homo sapiens); over 0.5 µM against CDK2/Cyclin E1 complex; under 0.1 µM with HCC70 cells (Homo sapiens); over 0.5 µM on CDK9/Cyclin T1 complex; over 0.5 µM in assay [2]. Also, the IC50 in the assay on COV504 cells (Homo sapiens) and in the assay on COV318 cells (Homo sapiens) was under 0.1 µM in each case.
With `Cc1nnc(-c2ccc3c(-c4nc(N[C@@H]5CC[C@@H](C)NC5)ncc4C(F)(F)F)c[nH]c3n2)s1` [Compound 158, N-[(3R,6R)-6-methyl-3-piperidyl]-4-[6-(5-methyl-1,3,4-thiadiazol-2-yl)-1H-pyrrolo[2,3-b]pyridin-3-yl]-5-(trifluoromethyl)pyrimidin-2-amine], the IC50 in assay [1] is under 0.03 µM; in the assay on MB453 cells (Homo sapiens), under 0.1 µM; against CDK2/Cyclin E1 complex, over 0.5 µM; with HCC70 cells (Homo sapiens) it was under 0.1 µM; at CDK9/Cyclin T1 complex, over 0.5 µM; in assay [2], over 0.5 µM. Also, the 50% inhibitory concentration (IC50) in the assay with COV504 cells (Homo sapiens) is under 0.1 µM; in the assay with COV318 cells (Homo sapiens), 0.1 to 0.5 µM.
Turning to `Cc1nsc(-c2ccc3c(-c4nc(N[C@@H]5CC[C@@H](C)NC5)ncc4C(F)(F)F)c[nH]c3n2)n1` [Compound 159, N-[(3R,6R)-6-methyl-3-piperidyl]-4-[6-(3-methyl-1,2,4-thiadiazol-5-yl)-1H-pyrrolo[2,3-b]pyridin-3-yl]-5-(trifluoromethyl)pyrimidin-2-amine], the concentration for half-maximal inhibition (IC50) in assay [1] is under 0.03 µM; in the assay on MB453 cells (Homo sapiens) it was under 0.1 µM; at CDK2/Cyclin E1 complex it was over 0.5 µM; in the assay on HCC70 cells (Homo sapiens) it was under 0.1 µM; against CDK9/Cyclin T1 complex it was over 0.5 µM; in assay [2], over 0.5 µM. The half-inhibitory concentration (IC50) with COV504 cells (Homo sapiens) is under 0.1 µM; in the assay with COV318 cells (Homo sapiens) it was over 1 µM.
For `Cc1nocc1-c1ccc2c(-c3nc(N[C@H]4CCC(C)(C)NC4)ncc3C(F)(F)F)n[nH]c2n1` [Compound 160, (S)—N-(6,6-dimethylpiperidin-3-yl)-4-(6-(3-methylisoxazol-4-yl)-1H-pyrazolo[3,4-b]pyridin-3-yl)-5-(trifluoromethyl)pyrimidin-2-amine], the IC50 is under 0.03 µM in assay [1]; 0.1 to 0.5 µM in the assay on MB453 cells (Homo sapiens); over 0.5 µM against CDK2/Cyclin E1 complex; over 1 µM with HCC70 cells (Homo sapiens); over 0.5 µM against CDK9/Cyclin T1 complex; over 0.5 µM in assay [2]. Besides, the concentration for half-maximal inhibition (IC50) with COV504 cells (Homo sapiens) is 0.1 to 0.5 µM; with COV318 cells (Homo sapiens) it was over 1 µM.
Regarding `Cc1ncoc1-c1ccc2c(-c3nc(N[C@H]4CCCNC4)ncc3C(F)(F)F)c[nH]c2n1` [Compound 161, 4-[6-(4-methyloxazol-5-yl)-1H-pyrrolo[2,3-b]pyridin-3-yl]-N-[(3S)-3-piperidyl]-5-(trifluoromethyl)pyrimidin-2-amine], the half-maximal inhibitory concentration (IC50) in assay [1] was under 0.03 µM; with MB453 cells (Homo sapiens), under 0.1 µM; at CDK2/Cyclin E1 complex, over 0.5 µM; in the assay on HCC70 cells (Homo sapiens), under 0.1 µM; on CDK9/Cyclin T1 complex, over 0.5 µM; in assay [2], over 0.5 µM. The half-maximal inhibitory concentration (IC50) in the assay on COV504 cells (Homo sapiens) was under 0.1 µM; in the assay on COV318 cells (Homo sapiens), 0.1 to 0.5 µM.
Take `Cc1nc(-c2ccc3c(-c4nc(N[C@H]5CC[C@H](C)NC5)ncc4C(F)(F)F)c[nH]c3n2)no1` [Compound 162, 4-[6-(5-methyl-1,2,4-oxadiazol-3-yl)-1H-pyrrolo[2,3-b]pyridin-3-yl]-N-[(3S,6S)-6-methyl-3-piperidyl]-5-(trifluoromethyl)pyrimidin-2-amine]: the half-inhibitory concentration (IC50) is under 0.03 µM in assay [1]; 0.5 to 1 µM in the assay with MB453 cells (Homo sapiens); over 0.5 µM against CDK2/Cyclin E1 complex; 0.1 to 0.5 µM with HCC70 cells (Homo sapiens); over 0.5 µM against CDK9/Cyclin T1 complex; over 0.5 µM in assay [2]. Further, the IC50 was under 0.1 µM in the assay on COV504 cells (Homo sapiens) and over 1 µM with COV318 cells (Homo sapiens).
With `Cc1nc(-c2ccc3c(-c4nc(N[C@@H]5CC[C@@H](C)NC5)ncc4C(F)(F)F)c[nH]c3n2)no1` [Compound 163, 4-[6-(5-methyl-1,2,4-oxadiazol-3-yl)-1H-pyrrolo[2,3-b]pyridin-3-yl]-N-[(3R, 6R)-6-methyl-3-piperidyl]-5-(trifluoromethyl)pyrimidin-2-amine], the IC50 in assay [1] is under 0.03 µM; in the assay with MB453 cells (Homo sapiens), under 0.1 µM; against CDK2/Cyclin E1 complex, over 0.5 µM; in the assay on HCC70 cells (Homo sapiens), under 0.1 µM; on CDK9/Cyclin T1 complex, over 0.5 µM; in assay [2], over 0.5 µM. The figures for the IC50 in the assay on COV504 cells (Homo sapiens) and in the assay with COV318 cells (Homo sapiens) were under 0.1 µM and over 1 µM, respectively.
On to `C[C@@H]1CC[C@@H](Nc2ncc(C(F)(F)F)c(-c3c[nH]c4nc(-c5nnnn5C)ccc34)n2)CN1` [Compound 164, N-[(3R, 6R)-6-methyl-3-piperidyl]-4-[6-(1-methyltetrazol-5-yl)-1H-pyrrolo[2,3-b]pyridin-3-yl]-5-(trifluoromethyl)pyrimidin-2-amine], for which the IC50 in assay [1] is under 0.03 µM; in the assay on MB453 cells (Homo sapiens), under 0.1 µM; on CDK2/Cyclin E1 complex, over 0.5 µM; in the assay on HCC70 cells (Homo sapiens) it was 0.1 to 0.5 µM; against CDK9/Cyclin T1 complex it was over 0.5 µM; in assay [2], over 0.5 µM. Further, the values for the IC50 in the assay with COV504 cells (Homo sapiens) and in the assay on COV318 cells (Homo sapiens) were under 0.1 µM and 0.5 to 1 µM, respectively.
With `C[C@H]1CC[C@H](Nc2ncc(C(F)(F)F)c(-c3c[nH]c4nc(-c5nnnn5C)ccc34)n2)CN1` [Compound 165, N-[(3S,6S)-6-methyl-3-piperidyl]-4-[6-(1-methyltetrazol-5-yl)-1H-pyrrolo[2,3-b]pyridin-3-yl]-5-(trifluoromethyl)pyrimidin-2-amine], the IC50 in assay [1] was 0.03 to 0.1 µM; in the assay on MB453 cells (Homo sapiens), 0.5 to 1 µM; against CDK2/Cyclin E1 complex, over 0.5 µM; in the assay on HCC70 cells (Homo sapiens) it was over 1 µM; on CDK9/Cyclin T1 complex, over 0.5 µM; in assay [2], over 0.5 µM. In addition, the IC50 was 0.5 to 1 µM in the assay on COV504 cells (Homo sapiens) and over 1 µM in the assay on COV318 cells (Homo sapiens).
For `Cc1nc(-c2ccc3c(-c4nc(N[C@H]5CC[C@H](C)NC5)ncc4C(F)(F)F)n[nH]c3n2)no1` [Compound 167, 4-[6-(5-methyl-1,2,4-oxadiazol-3-yl)-1H-pyrazolo[3,4-b]pyridin-3-yl]-N-[(3S,6S)-6-methyl-3-piperidyl]-5-(trifluoromethyl)pyrimidin-2-amine], the concentration for half-maximal inhibition (IC50) in assay [1] was under 0.03 µM; in the assay with MB453 cells (Homo sapiens) it was 0.1 to 0.5 µM; against CDK2/Cyclin E1 complex it was over 0.5 µM; with HCC70 cells (Homo sapiens) it was under 0.1 µM; on CDK9/Cyclin T1 complex, over 0.5 µM; in assay [2], over 0.5 µM. Besides, the concentration for half-maximal inhibition (IC50) in the assay with COV504 cells (Homo sapiens) is under 0.1 µM; in the assay on COV318 cells (Homo sapiens), 0.1 to 0.5 µM.
As for `Cc1nc(-c2ccc3c(-c4nc(N[C@H]5CCCNC5)ncc4C(F)(F)F)n[nH]c3n2)no1` [Compound 168, 4-[6-(5-methyl-1,2,4-oxadiazol-3-yl)-1H-pyrazolo[3,4-b]pyridin-3-yl]-N-[(3S)-3-piperidyl]-5-(trifluoromethyl)pyrimidin-2-amine], the IC50 in assay [1] was under 0.03 µM; with MB453 cells (Homo sapiens), under 0.1 µM; at CDK2/Cyclin E1 complex, over 0.5 µM; with HCC70 cells (Homo sapiens), under 0.1 µM; on CDK9/Cyclin T1 complex, over 0.5 µM; in assay [2] it was over 0.5 µM. In addition, the IC50 in the assay on COV504 cells (Homo sapiens) and with COV318 cells (Homo sapiens) was under 0.1 µM each time.
In the case of “(3S)-tert-butyl 3-((4-(6-(3,5-dimethylisoxazol-4-yl)-5-fluoro-1H-pyrrolo[2,3-b]pyridin-3-yl)-5-(trifluoromethyl)pyrimidin-2-yl)amino)piperidine-1-carboxylate [Compound 138]”, the 50% inhibitory concentration (IC50) is under 0.03 µM in assay [1] (setting [3]); under 0.1 µM in the assay with MB453 cells; over 0.5 µM on CDK2/Cyclin E1 complex (setting [4]); under 0.1 µM with HCC70 cells; over 0.5 µM on CDK9/Cyclin T1 complex (setting [5]); over 0.5 µM in assay [2] (setting [6]). The IC50 with COV504 cells and in the assay on COV318 cells was under 0.1 µM in each case.
Turning to “(3S,4S)-tert-butyl 3-((4-(6-(3,5-dimethylisoxazol-4-yl)-1H-indol-3-yl)-5-(trifluoromethyl)pyrimidin-2-yl)amino)-4-methylpiperidine-1-carboxylate [Compound 135]”, the IC50 in assay [1] (setting [3]) is 0.03 to 0.1 µM; with MB453 cells, under 0.1 µM; at CDK2/Cyclin E1 complex (setting [4]), over 0.5 µM; in the assay on HCC70 cells, 0.1 to 0.5 µM; at CDK9/Cyclin T1 complex (setting [5]), over 0.5 µM; in assay [2] (setting [6]) it was over 0.5 µM. The half-inhibitory concentration (IC50) in the assay with COV504 cells is under 0.1 µM; in the assay on COV318 cells, over 1 µM.
